This is an account of results in PMC11643494, “Structure–Activity Relationship Studies in a Series of 2-Aryloxy-N-(pyrimidin-5-yl)acetamide Inhibitors of SLACK Potassium Channels” (Molecules, 2024).

For one data set, the target named is T1, WT human SLACK (Homo sapiens, UniProt Q5JUK3).
T1 construct: host or cells: CHO-K1
T1 sequence (Q5JUK3 1-1235 isoform Q5JUK3-3): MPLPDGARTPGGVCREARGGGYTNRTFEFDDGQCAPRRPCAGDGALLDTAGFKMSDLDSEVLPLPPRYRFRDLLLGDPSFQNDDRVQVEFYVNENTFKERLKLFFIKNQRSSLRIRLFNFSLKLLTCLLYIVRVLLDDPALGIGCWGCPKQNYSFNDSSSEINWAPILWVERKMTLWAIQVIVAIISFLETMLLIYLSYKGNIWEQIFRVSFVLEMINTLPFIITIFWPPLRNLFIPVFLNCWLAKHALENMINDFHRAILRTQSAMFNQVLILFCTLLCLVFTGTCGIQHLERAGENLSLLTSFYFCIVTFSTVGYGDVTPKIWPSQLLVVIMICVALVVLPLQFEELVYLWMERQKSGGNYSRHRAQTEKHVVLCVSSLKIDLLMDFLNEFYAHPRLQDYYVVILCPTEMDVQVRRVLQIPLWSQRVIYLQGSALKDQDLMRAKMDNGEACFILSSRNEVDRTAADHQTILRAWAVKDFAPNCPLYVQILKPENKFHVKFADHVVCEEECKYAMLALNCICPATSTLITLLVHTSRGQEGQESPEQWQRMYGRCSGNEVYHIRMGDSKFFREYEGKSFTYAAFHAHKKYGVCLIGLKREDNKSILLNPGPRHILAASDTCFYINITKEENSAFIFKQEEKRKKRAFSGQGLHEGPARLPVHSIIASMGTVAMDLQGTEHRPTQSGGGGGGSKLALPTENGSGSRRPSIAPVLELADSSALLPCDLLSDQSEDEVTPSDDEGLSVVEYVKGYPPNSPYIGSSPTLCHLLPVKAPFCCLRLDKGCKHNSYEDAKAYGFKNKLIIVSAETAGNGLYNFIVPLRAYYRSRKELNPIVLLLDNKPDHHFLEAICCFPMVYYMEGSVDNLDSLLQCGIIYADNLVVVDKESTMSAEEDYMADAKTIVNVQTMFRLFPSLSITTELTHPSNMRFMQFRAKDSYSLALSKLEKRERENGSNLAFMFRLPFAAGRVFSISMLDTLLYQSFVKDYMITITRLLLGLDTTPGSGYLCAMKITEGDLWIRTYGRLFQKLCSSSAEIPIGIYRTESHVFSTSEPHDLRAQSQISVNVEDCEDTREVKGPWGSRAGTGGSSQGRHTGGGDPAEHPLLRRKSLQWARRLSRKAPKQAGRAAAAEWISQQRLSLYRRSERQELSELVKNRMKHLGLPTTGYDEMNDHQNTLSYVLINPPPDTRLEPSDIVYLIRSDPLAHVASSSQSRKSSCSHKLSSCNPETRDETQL
Description: Whole-cell automated patch clamp (APC) in CHO-K1 cells stably expressing WT human SLACK. In kind it is cell-based. The settings on record: for IC50 / WT SLACK inhibition, result in words: APC; for IC50: CHO-K1 cells stably expressing WT human SLACK, averages (n ≥ 3); for SLACK Imax: maximum inhibition at 30 µM test compound standardized to VU0606170 (set at 100%), WT human SLACK; for WT SLACK inhibition, result in words: concentrations 0.125 to 30 µM; for Fold less potent than hit 10 (SLACK inhibition): ratio of WT SLACK APC IC50 to hit 10. The method, then:
Using concentrations ranging from 0.125 to 30 µM in half-log steps, a concentration–response relationship was generated for each new analog using our APC assay in CHO-K1 cells stably expressing WT SLACK. A minimum of three cells, i.e., replicates, were collected per concentration for each analog.
Automated patch clamp recording was performed with a SyncroPatch 768 PE system (Nanion, Munich, Germany) as previously described. Whole-cell recordings were performed at room temperature. Cells were harvested by first washing with PBS without Mg^2+ or Ca^2+ (Gibco, Billings, MT, USA) to remove cell culture medium, followed by dissociation with TryPLE (Gibco, Billings, MT, USA). Cells were then resuspended and diluted to 200,000 cells/mL in external solution. External solution contained 105 mM NaCl, 4 mM KCl, 1 mM MgCl2, 5 mM CaCl2, 10 mM HEPES, 40 mM N-Methyl-D-glucamine chloride, titrated to pH 7.4 with NaOH and osmolarity of 300 mOsm/kg; internal solution contained 70 mM NaCl, 70 mM KF, 10 mM KCl, 5 mM EGTA, 5mM HEPES, titrated to a pH 7.2 with KOH and osmolarity of 295 mOsm/kg.
The APC protocol was set as following: Cells were held at […] −80 mV for 100 ms, then a ramp protocol was performed from −100 mV to 80 mV at 0.4 mV/ms, hold the cell at −80 mV for another 100 ms, then steps were performed at −20 mV, 0 mV, +20 mV, +40 mV, and +60 mV for 100 ms of each step. Whole-cell currents were measured at 0 mV and normalized to current after external buffer addition.
(The patch-clamp technique gives a direct electrical read-out from membranes.)

The subject of data set [1] is WT SLACK. The arrangement: method as in PMID 32408169. The settings on record: whole-cell patch clamp electrophysiology; read-out: IC50 versus WT SLACK; cited from earlier work.
The next data set concerns hERG (Kv11.1) channel. Further details: method as in PMID 32408169. The settings on record: 10 µM; cited from earlier work.
In the next data set the test system is human WT SLACK. The arrangement: method as in PMID 33859800. The settings on record: APC; read-out: IC50 versus human WT SLACK; cited from earlier work.
The test system of the next data set is SLACK mutant G288S. Further details: method as in PMID 33859800. The settings on record: APC; read-out: IC50 versus SLACK mutant G288S; cited from earlier work.
A further data set deals with SLACK mutant F364L. The arrangement: method as in PMID 33859800. The settings on record: APC; read-out: IC50 versus SLACK mutant F364L; cited from earlier work.
Details of data set [2]: method as in PMID 33859800. The settings on record: mice; cited from earlier work.
The test system of another data set is Kcnt1^L/L mice. Further details: method as in PMID 33859800. The settings on record: cited from earlier work.
A further data set concerns SLACK. Further details: method as in earlier work. The settings on record: patent application, no specific values reported; cited from earlier work.
Data set [3] deals with WT SLACK. The settings on record: cited from earlier work.
A further data set has as its system hERG. The settings on record: Tl+-flux, cited from earlier work.
Data set [4] has as its system co-cultured cortical neurons and glial cells. The arrangement: method as in PMID 33143429. The settings on record: cited from earlier work.
A further data set concerns A934T SLACK. The settings on record: cited from earlier work.
The subject of a further data set is G288S SLACK. Further details: method as in PMID 38893312. The settings on record: whole-cell APC; read-out: IC50 versus G288S SLACK; cited from earlier work.
Where [5] appears, read: whole-cell patch clamp electrophysiology, read-out: IC50 versus WT SLACK.

The structures appear in SMILES notation. Like-named read-outs stand apart in the source and are kept apart here.

By IC50 is commonly meant the concentration needed to halve the response being measured. A word on the clearance: it is a measure of how efficiently the substance is removed, as volume per time.

At WT human SLACK, `CC(C)(Oc1ccc(S(F)(F)(F)(F)F)cc1)C(=O)Nc1cnc(Oc2ccccc2F)nc1` [Analog 62] came in with an IC50 of 4100 nM.
Turning to `CC(C)(Oc1ccc(Cl)cc1)C(=O)Nc1cnc(Sc2ccccc2F)nc1` [Analog 63], on WT human SLACK, half-maximal inhibition (IC50) required 890 nM and the “SLACK Imax” value was found to be 101%.
As for `CC(C)(Oc1ccc(Cl)cc1)C(=O)Nc1cnc(Nc2ccccc2F)nc1` [Analog 64], the “WT SLACK inhibition, result in words” value at WT human SLACK was “not tolerated”.
Molecule `CN(c1ncc(NC(=O)C(C)(C)Oc2ccc(Cl)cc2)cn1)c1ccccc1F` [Analog 65] displayed an IC50 against WT human SLACK of 2100 nM.
Turning to `CN(c1ccc(S(C)(=O)=O)cc1)c1ncc(NC(=O)C(C)(C)Oc2ccc(Cl)cc2)cn1` [Analog 67], at WT human SLACK, it took 1400 nM to reach half-maximal inhibition (IC50) and the “SLACK Imax” value was 101%.
For the molecule `CC(C)(Sc1ccc(Cl)cc1)C(=O)Nc1cnc(Oc2ccccc2F)nc1` [Analog 68], on WT human SLACK, the IC50 was determined as 4100 nM and the “Fold less potent than hit 10 (SLACK inhibition)” value is listed as “approximately 3 fold”.
The corresponding values for `CC(C)(Nc1ccc(Cl)cc1)C(=O)Nc1cnc(Oc2ccccc2F)nc1` [Analog 69] are 2700 nM and about 2 fold.
The corresponding values for `CC(C)(Cc1ccc(Cl)cc1)C(=O)Nc1cnc(Oc2ccccc2F)nc1` [Analog 73] are 7200 nM and 5 fold.
With `O=C(CCc1ccc(Cl)cc1)Nc1cnc(Oc2ccccc2F)nc1` [Analog 74], on WT human SLACK, half-maximal inhibition (IC50) required 5100 nM and the “SLACK Imax” value is on record as 102%.
In the case of `O=C(COc1ccc(Cl)cc1)Nc1cnc(Oc2ccccc2F)nc1` [Analog 75], the “WT SLACK inhibition, result in words” value on WT human SLACK was “inactive”.
`O=C(Nc1cnc(Oc2ccccc2F)nc1)C(F)(F)Oc1ccc(Cl)cc1` [Analog 79] gave a concentration for half-maximal inhibition (IC50) at WT human SLACK of 2100 nM.
Turning to `CNCc1ccc(Cl)cc1` [Analog 80], the “WT SLACK inhibition, result in words” value at WT human SLACK is “only a weak inhibitor”.
In the case of `CN(Cc1ccc(Cl)cc1)C(=O)Nc1cnc(Oc2ccccc2F)nc1` [Analog 82], at WT human SLACK, the IC50 was over 10000 nM and the “SLACK Imax” value came out at 79%.
On to `CC(C)(Oc1ccc(Cl)cc1)C(=O)Nc1ccc(Oc2ccccc2F)nc1` [Analog 86], for which, on WT human SLACK, inhibition was half-maximal at 3100 nM (IC50) and the “Fold less potent than hit 10 (SLACK inhibition)” value is listed as about 2 fold.
The molecule `CC(C)(Oc1ccc(Cl)cc1)C(=O)Nc1cnc(Oc2ccccc2F)c(C#N)c1` [Analog 87] returned an IC50 at WT human SLACK of 1800 nM.
Consider `CC(C)(Oc1ccc(Cl)cc1)C(=O)Nc1ccc(Oc2ccccc2F)cc1` [Analog 88], for which, at WT human SLACK, the IC50 was 4900 nM, the “SLACK Imax” value was 92% and the “Fold less potent than hit 10 (SLACK inhibition)” value stood at 3.5 fold. The “Fold less active than pyridine 86” value at WT human SLACK (WT SLACK APC IC50) was 1.6 fold.
Consider `CC(C)(Oc1ccc(Cl)cc1)C(=O)Nc1ccc(Oc2ccccc2F)cn1` [Analog 89], for which, on WT human SLACK, the IC50 was over 10000 nM; the “WT SLACK inhibition, result in words” value is on record as “only weak inhibitors”; the “SLACK Imax” value amounted to 52%.
The corresponding values for `CC(C)(Oc1ccc(Cl)cc1)C(=O)Nc1cnc(Oc2ccccc2F)cn1` [Analog 90] are over 10000 nM, “only weak inhibitors” and 50%.
On to `Cc1cccc(CC(=O)Nc2cnn(-c3cccc(C(=O)NCc4ccccc4-n4cncn4)c3)c2)c1` [Compound 1], for which the IC50 with WT SLACK [1] was 3200 nM. For the same molecule, the “hERG (Kv11.1) channel blockade” value with hERG (Kv11.1) channel is on record as “almost completely blocked the channel”.
In the case of `O=C(Nc1cccc(C(F)(F)F)c1)c1ccc2nc(N3C(=O)c4ccccc4C3=O)sc2c1` [Compound 2], in the data set on WT SLACK [1], the IC50 is 3000 nM. The “hERG (Kv11.1) channel blockade” value with hERG (Kv11.1) channel is recorded as 10–20%.
Regarding `O=C(Nc1cccc(C(F)(F)F)c1)c1ccc(CSc2nnnn2-c2ccccc2)cc1` [Compound 3], the IC50 in the data set on WT SLACK [1] was 1600 nM. Moreover, the “hERG (Kv11.1) channel blockade” value with hERG (Kv11.1) channel was 45%.
With `C[C@H](NC(=O)c1cc(C(F)(F)F)nn1C)c1nc(-c2ccnc(C(F)(F)F)c2)no1` [Compound 4], the results for the half-maximal inhibitory concentration (IC50) with human WT SLACK, in the data set on SLACK mutant G288S and with SLACK mutant F364L were […], 220 nM and 1800 nM, respectively. In data set [2], the bioavailability entry is listed as “complete bioavailability”. Besides, in [2], the clearance is 2.0 mL/min/kg. The anticonvulsant effects result with Kcnt1^L/L mice is listed as “anticonvulsant effects were observed”.
For the molecule `O=C(N[C@@H]1CCc2cc(Cl)ccc21)c1ccc(S(=O)(=O)N2CCCC2)s1` [Compound 5], in the data set with SLACK, the IC50 was under 1000 nM and the “SLACK IC50” value was “less than one micromolar”.
Consider `COc1ccc(Cl)cc1NC(=O)CN1CCN(S(=O)(=O)N2CCC(C)CC2)CC1` [Compound 6], for which the IC50 with WT SLACK [3] (setting [5]) was 1700 nM; with hERG, over 10000 nM. Further, the “frequency of calcium (Ca2+) oscillations, result in words” value in [4] is on record as “inhibiting the frequency of calcium (Ca^2+) oscillations”.
For the molecule `Cc1ccc2cccc(S(=O)(=O)N3CC(c4nc(-c5ccc(F)cc5)no4)C3)c2n1` [Compound 7], the IC50 in the data set on WT SLACK [3] (whole-cell APC, read-out: APC IC50 versus WT SLACK) is 320 nM. For the same molecule, the “hERG activity, result in words” value in the data set on hERG (10 µM) was “inactive”. Also, the “A934T SLACK inhibition, result in words” value with A934T SLACK is on record as “potent inhibitor”.
As to `CCCCN(Cc1ccc(F)cc1)c1nc2c(c(=O)n(Cc3cccc(OC)c3)c(=O)n2C)n1C` [Compound 8], the IC50 is 700 nM with WT SLACK [3] (setting [5]); 590 nM with A934T SLACK (whole-cell APC, read-out: IC50 versus A934T SLACK); 710 nM in the data set with G288S SLACK.
